Assays:
[1] = target: Mitogen-activated protein kinase 8 (Homo sapiens, UniProt P45983); experiment: Percentage JNK1 activity remaining in the presence of 2uM inhibitor
[2] = target: Mitogen-activated protein kinase 3 (Homo sapiens) (UniProt P27361); experiment: Percentage ERK1 activity remaining in the presence of 2uM inhibitor
[3] = target: T1, 3-phosphoinositide-dependent protein kinase 1 (Homo sapiens) (UniProt O15530); experiment: Percentage PDK1 activity remaining in the presence of 2uM inhibitor
T1 sequence (whole entry): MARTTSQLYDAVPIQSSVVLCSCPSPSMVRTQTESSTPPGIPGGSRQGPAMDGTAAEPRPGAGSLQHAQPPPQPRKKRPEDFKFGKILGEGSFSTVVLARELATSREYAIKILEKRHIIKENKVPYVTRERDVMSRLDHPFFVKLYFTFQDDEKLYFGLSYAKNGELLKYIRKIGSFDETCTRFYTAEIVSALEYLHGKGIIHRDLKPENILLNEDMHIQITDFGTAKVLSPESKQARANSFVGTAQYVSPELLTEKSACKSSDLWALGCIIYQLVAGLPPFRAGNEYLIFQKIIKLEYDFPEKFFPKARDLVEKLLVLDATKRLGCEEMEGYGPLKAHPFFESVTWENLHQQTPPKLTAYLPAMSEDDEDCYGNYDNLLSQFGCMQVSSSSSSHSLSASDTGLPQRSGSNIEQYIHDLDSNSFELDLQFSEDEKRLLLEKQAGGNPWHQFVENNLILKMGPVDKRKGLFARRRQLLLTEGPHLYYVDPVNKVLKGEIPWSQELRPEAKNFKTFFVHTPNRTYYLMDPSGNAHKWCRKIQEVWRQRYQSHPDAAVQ

[4] = target: Mitogen-activated protein kinase 10 (Homo sapiens) (UniProt P53779); experiment: Percentage JNK3 activity remaining in the presence of 2uM inhibitor
[5] = target: RAC-beta serine/threonine-protein kinase (Homo sapiens) (UniProt P31751); experiment: Percentage PKBbeta activity remaining in the presence of 2uM inhibitor
Chain of RAC-beta serine/threonine-protein kinase (Homo sapiens) (P31751 whole entry): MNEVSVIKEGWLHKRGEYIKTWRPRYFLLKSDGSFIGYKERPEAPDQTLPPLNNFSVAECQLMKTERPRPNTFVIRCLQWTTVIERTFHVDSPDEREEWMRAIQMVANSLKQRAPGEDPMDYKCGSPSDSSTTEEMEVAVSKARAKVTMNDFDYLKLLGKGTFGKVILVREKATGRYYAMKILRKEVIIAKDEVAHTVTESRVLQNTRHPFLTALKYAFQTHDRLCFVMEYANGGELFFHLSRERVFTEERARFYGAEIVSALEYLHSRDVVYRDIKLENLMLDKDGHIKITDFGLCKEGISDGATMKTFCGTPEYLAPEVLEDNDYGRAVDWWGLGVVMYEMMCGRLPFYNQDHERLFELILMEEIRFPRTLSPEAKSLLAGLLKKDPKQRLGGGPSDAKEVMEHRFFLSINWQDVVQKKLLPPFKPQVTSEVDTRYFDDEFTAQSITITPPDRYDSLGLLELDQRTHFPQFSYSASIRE

[6] = target: Serine/threonine-protein kinase Nek7 (Homo sapiens) (UniProt Q8TDX7); experiment: Percentage NEK7 activity remaining in the presence of 2uM inhibitor
[7] = target: T2, Mitogen-activated protein kinase 13 (Homo sapiens) (UniProt O15264); experiment: Percentage p38delta activity remaining in the presence of 2uM inhibitor
T2 sequence (whole entry): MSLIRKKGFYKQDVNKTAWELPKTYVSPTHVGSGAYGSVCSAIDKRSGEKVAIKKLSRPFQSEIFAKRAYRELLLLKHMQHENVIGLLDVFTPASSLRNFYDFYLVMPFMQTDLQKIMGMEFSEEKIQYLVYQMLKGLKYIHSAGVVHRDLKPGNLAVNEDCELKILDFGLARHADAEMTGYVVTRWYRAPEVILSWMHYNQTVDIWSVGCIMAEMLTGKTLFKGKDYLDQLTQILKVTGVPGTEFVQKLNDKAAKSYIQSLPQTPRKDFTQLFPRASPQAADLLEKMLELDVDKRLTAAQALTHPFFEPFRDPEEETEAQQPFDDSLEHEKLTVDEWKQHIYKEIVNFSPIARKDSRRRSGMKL

[8] = target: cAMP-dependent protein kinase catalytic subunit alpha (Homo sapiens, UniProt P17612); experiment: Percentage PKA activity remaining in the presence of 2uM inhibitor
[9] = target: MAP kinase-interacting serine/threonine-protein kinase 1 (Homo sapiens) (UniProt Q9BUB5); experiment: Percentage MNK1 activity remaining in the presence of 2uM inhibitor
[10] = target: T3, Serine/threonine-protein kinase BRSK2 (Homo sapiens) (UniProt Q8IWQ3); experiment: Percentage BRSK2 activity remaining in the presence of 3uM inhibitor
T3 sequence (whole entry): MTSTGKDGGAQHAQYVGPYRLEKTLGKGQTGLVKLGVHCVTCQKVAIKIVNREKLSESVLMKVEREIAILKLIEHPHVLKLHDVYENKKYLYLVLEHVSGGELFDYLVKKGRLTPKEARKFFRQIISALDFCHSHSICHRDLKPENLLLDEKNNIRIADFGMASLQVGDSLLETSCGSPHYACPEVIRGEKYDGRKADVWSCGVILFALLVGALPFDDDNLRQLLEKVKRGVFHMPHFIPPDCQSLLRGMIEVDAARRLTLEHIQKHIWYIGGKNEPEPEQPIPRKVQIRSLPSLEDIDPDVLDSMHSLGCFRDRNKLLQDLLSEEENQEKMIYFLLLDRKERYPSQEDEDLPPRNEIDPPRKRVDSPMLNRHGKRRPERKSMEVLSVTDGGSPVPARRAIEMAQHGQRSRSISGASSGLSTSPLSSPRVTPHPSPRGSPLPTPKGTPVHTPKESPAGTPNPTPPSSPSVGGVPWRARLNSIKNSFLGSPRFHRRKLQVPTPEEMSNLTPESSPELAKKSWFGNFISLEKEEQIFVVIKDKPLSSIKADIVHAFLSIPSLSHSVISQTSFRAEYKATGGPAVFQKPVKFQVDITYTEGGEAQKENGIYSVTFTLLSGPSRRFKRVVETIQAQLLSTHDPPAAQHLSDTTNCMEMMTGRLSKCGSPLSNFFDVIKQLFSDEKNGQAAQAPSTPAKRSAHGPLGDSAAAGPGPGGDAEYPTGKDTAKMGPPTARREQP

[11] = target: Homeodomain-interacting protein kinase 2 (Homo sapiens) (UniProt Q9H2X6); experiment: Percentage HIPK2 activity remaining in the presence of 3uM inhibitor
Chain of Homeodomain-interacting protein kinase 2 (Homo sapiens) (Q9H2X6 whole entry, looked up): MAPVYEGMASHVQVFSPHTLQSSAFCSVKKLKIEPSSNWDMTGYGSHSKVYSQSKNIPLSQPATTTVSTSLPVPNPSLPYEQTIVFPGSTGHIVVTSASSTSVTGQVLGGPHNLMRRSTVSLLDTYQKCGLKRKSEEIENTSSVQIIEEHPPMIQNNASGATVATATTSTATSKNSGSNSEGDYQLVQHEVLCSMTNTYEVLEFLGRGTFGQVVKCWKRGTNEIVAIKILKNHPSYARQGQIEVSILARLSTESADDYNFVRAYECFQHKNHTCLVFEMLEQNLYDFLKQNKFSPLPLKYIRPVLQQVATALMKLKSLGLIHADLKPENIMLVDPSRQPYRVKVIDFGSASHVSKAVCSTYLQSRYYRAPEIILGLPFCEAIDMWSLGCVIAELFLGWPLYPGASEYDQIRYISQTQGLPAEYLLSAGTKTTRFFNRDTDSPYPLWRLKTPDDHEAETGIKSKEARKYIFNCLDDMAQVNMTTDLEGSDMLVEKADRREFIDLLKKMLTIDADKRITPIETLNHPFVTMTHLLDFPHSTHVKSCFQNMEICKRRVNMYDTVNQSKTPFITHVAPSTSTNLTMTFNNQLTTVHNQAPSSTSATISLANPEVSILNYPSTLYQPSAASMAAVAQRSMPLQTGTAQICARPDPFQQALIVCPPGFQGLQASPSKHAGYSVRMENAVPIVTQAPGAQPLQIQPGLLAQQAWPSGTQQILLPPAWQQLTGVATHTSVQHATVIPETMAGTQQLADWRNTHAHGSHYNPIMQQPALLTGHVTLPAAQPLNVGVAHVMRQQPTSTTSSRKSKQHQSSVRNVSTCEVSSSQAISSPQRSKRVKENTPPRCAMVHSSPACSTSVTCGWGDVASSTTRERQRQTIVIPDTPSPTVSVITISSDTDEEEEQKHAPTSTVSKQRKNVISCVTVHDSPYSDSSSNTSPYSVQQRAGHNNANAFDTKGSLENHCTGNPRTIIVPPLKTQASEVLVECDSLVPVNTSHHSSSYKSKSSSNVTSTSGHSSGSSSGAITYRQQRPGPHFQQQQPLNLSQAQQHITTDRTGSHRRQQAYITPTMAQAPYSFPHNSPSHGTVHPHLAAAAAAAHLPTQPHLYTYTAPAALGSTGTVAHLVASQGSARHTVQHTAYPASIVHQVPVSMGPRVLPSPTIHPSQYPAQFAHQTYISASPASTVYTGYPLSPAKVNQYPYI

[12] = target: Ribosomal protein S6 kinase alpha-5 (Homo sapiens) (UniProt O75582); experiment: Percentage MSK1 activity remaining in the presence of 3uM inhibitor
Chain of Ribosomal protein S6 kinase alpha-5 (Homo sapiens) (O75582 whole entry, looked up): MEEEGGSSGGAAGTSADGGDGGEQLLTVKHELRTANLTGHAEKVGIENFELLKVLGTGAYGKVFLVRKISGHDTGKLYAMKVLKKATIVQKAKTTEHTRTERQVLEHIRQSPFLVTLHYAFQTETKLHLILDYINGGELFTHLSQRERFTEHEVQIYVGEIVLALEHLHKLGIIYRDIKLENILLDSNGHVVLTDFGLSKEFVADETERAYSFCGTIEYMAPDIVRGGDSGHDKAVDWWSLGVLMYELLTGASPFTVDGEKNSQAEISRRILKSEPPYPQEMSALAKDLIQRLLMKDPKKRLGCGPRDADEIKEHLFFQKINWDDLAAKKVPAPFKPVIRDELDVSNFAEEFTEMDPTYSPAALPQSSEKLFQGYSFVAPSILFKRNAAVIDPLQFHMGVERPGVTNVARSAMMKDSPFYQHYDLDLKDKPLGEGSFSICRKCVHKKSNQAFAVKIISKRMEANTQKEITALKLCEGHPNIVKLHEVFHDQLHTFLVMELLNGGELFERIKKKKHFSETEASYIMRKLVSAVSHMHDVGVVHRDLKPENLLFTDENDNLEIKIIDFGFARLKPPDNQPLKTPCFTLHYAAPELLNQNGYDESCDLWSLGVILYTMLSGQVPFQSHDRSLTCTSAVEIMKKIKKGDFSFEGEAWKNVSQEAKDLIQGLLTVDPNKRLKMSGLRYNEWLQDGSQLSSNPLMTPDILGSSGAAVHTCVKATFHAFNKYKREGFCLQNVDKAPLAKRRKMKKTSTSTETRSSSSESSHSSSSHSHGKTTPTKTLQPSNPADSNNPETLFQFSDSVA

[13] = target: SRSF protein kinase 1 (Homo sapiens) (UniProt Q96SB4); experiment: Percentage SRPK1 activity remaining in the presence of 3uM inhibitor
[14] = target: Serine/threonine-protein kinase Nek6 (Homo sapiens) (UniProt Q9HC98); experiment: Percentage NEK6 activity remaining in the presence of 3uM inhibitor
[15] = target: Serine/threonine-protein kinase Chk2 (Homo sapiens) (UniProt O96017); experiment: Percentage CHK2 activity remaining in the presence of 3uM inhibitor
Chain of Serine/threonine-protein kinase Chk2 (Homo sapiens) (O96017 whole entry): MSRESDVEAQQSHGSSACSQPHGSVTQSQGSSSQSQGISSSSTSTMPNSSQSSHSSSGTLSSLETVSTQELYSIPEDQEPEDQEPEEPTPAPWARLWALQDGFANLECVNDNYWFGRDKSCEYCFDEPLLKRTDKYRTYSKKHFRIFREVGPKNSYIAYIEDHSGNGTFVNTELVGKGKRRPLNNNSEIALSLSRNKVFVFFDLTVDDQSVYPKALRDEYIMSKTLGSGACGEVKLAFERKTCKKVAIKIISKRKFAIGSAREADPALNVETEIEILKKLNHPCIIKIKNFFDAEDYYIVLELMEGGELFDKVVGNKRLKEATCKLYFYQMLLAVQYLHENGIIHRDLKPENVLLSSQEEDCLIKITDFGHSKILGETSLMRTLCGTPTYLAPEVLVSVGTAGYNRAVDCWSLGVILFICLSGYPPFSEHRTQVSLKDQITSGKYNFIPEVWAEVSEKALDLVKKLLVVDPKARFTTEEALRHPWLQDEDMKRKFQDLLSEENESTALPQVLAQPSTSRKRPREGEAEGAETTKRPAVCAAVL

[16] = target: Serine/threonine-protein kinase PAK 6 (Homo sapiens) (UniProt Q9NQU5); experiment: Percentage PAK6 activity remaining in the presence of 3uM inhibitor
Aurora kinase B = Aurora kinase B (Homo sapiens, UniProt Q96GD4); experiment: Percentage Aurora B activity remaining in the presence of 3uM inhibitor
Chain of Aurora kinase B (Q96GD4 whole entry): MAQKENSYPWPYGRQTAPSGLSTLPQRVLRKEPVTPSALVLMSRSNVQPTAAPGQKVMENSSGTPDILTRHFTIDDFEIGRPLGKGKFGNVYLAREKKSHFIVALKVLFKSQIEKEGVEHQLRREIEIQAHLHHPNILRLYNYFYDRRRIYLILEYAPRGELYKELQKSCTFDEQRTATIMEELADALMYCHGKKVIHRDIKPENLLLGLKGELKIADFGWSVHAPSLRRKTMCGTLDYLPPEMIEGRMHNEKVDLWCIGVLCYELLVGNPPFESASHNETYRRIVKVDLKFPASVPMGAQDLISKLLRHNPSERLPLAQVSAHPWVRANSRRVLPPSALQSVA

Ephrin type-A receptor 2 = Ephrin type-A receptor 2 (Homo sapiens, UniProt P29317); experiment: Inhibition of Eph-A2 in the presence of 50uM ATP
Chain of Ephrin type-A receptor 2 (P29317 whole entry): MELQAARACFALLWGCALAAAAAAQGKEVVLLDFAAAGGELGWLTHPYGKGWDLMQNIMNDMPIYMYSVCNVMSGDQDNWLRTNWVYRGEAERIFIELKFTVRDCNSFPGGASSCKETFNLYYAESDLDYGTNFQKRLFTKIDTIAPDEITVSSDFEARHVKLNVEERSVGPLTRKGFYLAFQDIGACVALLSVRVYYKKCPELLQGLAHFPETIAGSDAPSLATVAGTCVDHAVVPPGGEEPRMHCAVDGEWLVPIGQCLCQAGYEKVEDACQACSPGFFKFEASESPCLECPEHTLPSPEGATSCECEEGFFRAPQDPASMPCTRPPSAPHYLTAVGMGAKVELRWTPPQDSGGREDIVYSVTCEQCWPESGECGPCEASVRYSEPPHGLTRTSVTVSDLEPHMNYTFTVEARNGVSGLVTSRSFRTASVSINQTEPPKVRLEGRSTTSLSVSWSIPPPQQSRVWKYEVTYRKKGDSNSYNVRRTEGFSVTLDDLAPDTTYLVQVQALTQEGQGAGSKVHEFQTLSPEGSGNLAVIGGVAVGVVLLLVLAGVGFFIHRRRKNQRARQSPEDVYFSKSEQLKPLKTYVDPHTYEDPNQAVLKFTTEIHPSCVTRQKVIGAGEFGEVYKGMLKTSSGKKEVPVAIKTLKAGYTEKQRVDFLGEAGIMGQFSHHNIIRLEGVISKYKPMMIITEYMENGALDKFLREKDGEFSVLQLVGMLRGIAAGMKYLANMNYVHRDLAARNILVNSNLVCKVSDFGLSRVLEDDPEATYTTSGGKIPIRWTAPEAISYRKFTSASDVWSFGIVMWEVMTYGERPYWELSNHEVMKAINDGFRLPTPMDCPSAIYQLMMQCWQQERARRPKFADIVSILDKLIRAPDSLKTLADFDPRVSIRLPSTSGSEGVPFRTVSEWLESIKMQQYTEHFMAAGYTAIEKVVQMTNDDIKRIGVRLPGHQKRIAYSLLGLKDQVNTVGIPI

Chain of Mitogen-activated protein kinase 8 (P45983 whole entry): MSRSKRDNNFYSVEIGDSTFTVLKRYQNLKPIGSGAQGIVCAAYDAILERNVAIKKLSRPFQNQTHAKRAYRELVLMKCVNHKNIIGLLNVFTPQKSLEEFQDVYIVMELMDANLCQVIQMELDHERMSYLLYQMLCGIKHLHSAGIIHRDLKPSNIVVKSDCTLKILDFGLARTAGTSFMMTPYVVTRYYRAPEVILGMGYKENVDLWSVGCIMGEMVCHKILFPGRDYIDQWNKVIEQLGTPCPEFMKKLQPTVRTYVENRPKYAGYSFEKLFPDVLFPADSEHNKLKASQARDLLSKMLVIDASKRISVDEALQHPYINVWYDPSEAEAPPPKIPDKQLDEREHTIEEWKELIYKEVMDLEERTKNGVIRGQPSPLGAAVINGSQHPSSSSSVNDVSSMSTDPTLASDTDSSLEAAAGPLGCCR

SMILES | Activity [1] | Activity [2] | Activity [3] | Activity [4] | Activity [5] | Activity [6] | Activity [7] | Activity [8] | Activity [9] | Activity [10] | Activity [11] | Activity [12] | Activity [13] | Activity [14] | Activity [15] | Activity [16] | Activity (Aurora kinase B) | IC50 (Ephrin type-A receptor 2)
Cn1cc(C2=C(c3ccc(Cl)cc3Cl)C(=O)NC2=O)c2ccccc21 | 106% | 99% | 92% | 88% | 96% | 85% | 81% | 88% | 85% |  |  |  |  |  |  |  |  | 
Cc1ccc(-c2c(C(=O)CF)n(CCCO)c3ncnc(N)c23)cc1 |  |  |  |  |  |  |  |  |  | 53% | 79% | 75% | 85% | 90% | 81% | 93% | 59% | 760 nM (antagonist)

Source: ChEMBL document CHEMBL1150976, “The selectivity of protein kinase inhibitors: a further update” (Biochem J, 2007)
